Several values for one entry are separate records, joined by “and”; a condition that tells them apart may be missing. Equal entries are not always repeated. Structures can show the parent of a compound that is named as a salt. Where two headings read alike, the source gives them in different places.
Experiments:
[1] = Mean animal weight / weight gain after tumor transplantation; type: in vivo, rat (Sprague-Dawley rats); details: CP 70 (exp. 1-3), BCNU 25, MeCCNU 45 (exp. 1), picolyl-3-CNU 25, its HCl 25 (exp. 2), morpholino-CNU 28, piperidino-CNU 15 (exp. 3), dimethylmorpholino-CNU 45 mg/kg (exp. 4); for Mean animal weight on day 50: day 50 after tumor transplantation; for Mean animal weight on day 100: day 100 after tumor transplantation
Method: (§1) Male Sprague-Dawley rats were used in the experiments. Yoshida sarcome in ascites form was maintained in the same strain of rats by serial intraperitoneal injection of 0,5 ml of ascites fluid.
(§2) 3×10^6 cells were injected into the colon wall in a manner known per se. The chemotherapeutic treatment was carried out on the eighth day after implantation of the tumor cells.
(§3) Water-insoluble compounds were dissolved in Cremophor EL/ethanol/physiological saline (20:20:60: vol.%). Water-soluble substances were dissolved in physiological saline. Cremophor EL is a surfactant on the basis of polyethoxylated castor oil. All test compounds were administered introperitoneally. The nitrosoureas were applied at approximately equitoxic doses corresponding to about 80% of the acute LD50 values observed in healthy rats of the same strain over a 28-day observation period.
In all treated animals and at all doses tested the mean weight gain was lower than in the controls. Table 3 gives the mean animal weights measured 50 and 100 days after tumor transplantation in experiments 1 to 5.

[2] = tested on: Yoshida sarcoma; type: in vivo, rat (male Sprague-Dawley rats); details: for tumor-free animals at the end of the experiment (in words) / increase in tumor-free animals (cures) above controls: 120 days; for increase in tumor-free animals (cures) above controls: BCNU, MeCCNU 45, dimethylmorpholine-CNU 45, piperidino-CNU 15, picolyl-3-CNU.HCl 25 mg/kg; for effect on survival time / life expectancy (in words): experiments 1-4, MeCCNU 45, morpholino-CNU 28 (exp. 3 and 5), dimethylmorpholine-CNU 45, piperidino-CNU 15, picolyl-3-CNU 25, picolyl-3-CNU.HCl 25 mg/kg
Method: The chemotherapeutic activity of nitrosoureas was compared in antitumor tests using Yoshida sarcoma ascited cells implanted into the wall of the descending colon in Sprague-Dawley rats.
as §1, §2, §3
(§4) Each experiment involved an untreated control group and a varying number of treated groups. Individual survival times were counted as days after tumor inoculation. At the time of death a record of whether an animal was tumor-free or not was made. All animals alive 120 days after tumor inoculation were killed. Animals that according to macroscopic examination had no tumor at the end of the experiment were considered as cured. Since in a number of control rats also no tumors occurred after 120 days the differences in cures between controls and treated animals rather than absolute numbers are reported. Differences in survival were evaluated statistically by individual comparisons between treated rats and controls using a nonparametric log-rank test (Kalbfleisch and Prentice, The statistical analysis of failure time data, Wiley, New York, 1979). Numerical evaluation was performed using a computerized system.

[3] = tested on: Yoshida sarcoma; details: previous experiments; i.p.; cited from earlier work
[4] = Toxicity in treated tumor-bearing rats (Yoshida sarcoma experiments); type: in vivo, rat (Sprague-Dawley rats)
Method: as §1, §2, §3, §4

[5] = Water solubility
[6] = Experiment 1, CP 70, BCNU 25, MeCCNU 45 mg/kg
[7] = Experiment 1, CP 70, BCNU 25, MeCCNU 45 mg/kg, initial animals CP 30, BCNU 30, MeCCNU 29
[8] = Experiment 1, i.p. day 8, CP 70, BCNU 25, MeCCNU 45 mg/kg
[9] = Experiment 2, CP 70, picolyl-3-CNU 25, picolyl-3-CNU.HCl 25 mg/kg
[10] = Experiment 2, CP 70, picolyl-3-CNU 25, picolyl-3-CNU.HCl 25 mg/kg, 30 initial animals each
[11] = Experiment 2, i.p. day 8, CP 70, picolyl-3-CNU 25, picolyl-3-CNU.HCl 25 mg/kg
[12] = Experiment 3, CP 70, morpholino-CNU 28, piperidino-CNU 15 mg/kg
[13] = Experiment 3, CP 70, morpholino-CNU 28, piperidino-CNU 15 mg/kg, 30 initial animals each
[14] = Experiment 5, CP 70, picolyl-3-CNU.HCl 25, morpholino-CNU 28, piperidino-CNU 15 mg/kg
[15] = Experiment 5, CP 70, picolyl-3-CNU.HCl 25, morpholino-CNU 28, piperidino-CNU 15 mg/kg, 15 initial animals (picolyl-3-CNU.HCl 14)
[16] = Experiment 5, CP 70, piperidino-CNU 15 mg/kg
[17] = Experiment 5, i.p. day 8, CP 70, picolyl-3-CNU.HCl 25, morpholino-CNU 28, piperidino-CNU 15 mg/kg

O=NN(CCCl)C(=O)NCCCl [BCNU, 1,3-bis-(2-chloroethyl)-1-nitrosourea]
Mean animal weight on day 50 [1]: 270 g
Mean animal weight on day 100 [1]: 300 g
tumor-free animals at the end of the experiment (in words) [2]: increased the rate of tumor-free animals alive at the end of the experiment
increase in tumor-free animals (cures) above controls ([2]; CP (exp. 1-3)): 18%
D1-120 = difference (%) between tf1-120 of treated and untreated animals [2, 6]: 22%
D120 = difference (%) between tf120 of treated and untreated animals [2, 6]: 18%
tf1-120 (%) (tf120 + animals dying of toxicity) [2, 6]: 47%
tf120 (%) (animals surviving day 120 without tumor) [2, 6]: 43%
tf1-120, No. (tf120 + animals dying of toxicity) [2, 7]: 14
tf120, No. (animals surviving day 120 without tumor) [2, 7]: 13
% M (median survival time, untreated control = 100) [2, 8]: 160%
M = median survival time [2, 8]: 74 days
activity against Yoshida sarcoma, shown previously (in words) [3]: active

O=P1(N(CCCl)CCCl)NCCCO1 (stereo not drawn) [CP, 2-bis-(β-chloroethyl)-amino-oxo-2-oxa-2-λ^5-phospha-3-aza-cyclohexane]
Mean animal weight on day 50 [1]: 300 to 330 g
Mean animal weight on day 100 [1]: 300 to 370 g
D1-120 = difference (%) between tf1-120 of treated and untreated animals [2, 6]: 38%
D120 = difference (%) between tf120 of treated and untreated animals [2, 6]: 25%
tf1-120 (%) (tf120 + animals dying of toxicity) [2, 6]: 63%
tf120 (%) (animals surviving day 120 without tumor) [2, 6]: 50%
tf1-120, No. (tf120 + animals dying of toxicity) [2, 7]: 21
tf120, No. (animals surviving day 120 without tumor) [2, 7]: 15
% M (median survival time, untreated control = 100) [2, 8]: > 260%
M = median survival time [2, 8]: > 120 days
% M (median survival time, untreated control = 100) [2, 9]: > 545%
D1-120 = difference (%) between tf1-120 of treated and untreated animals [2, 9]: 58%
D120 = difference (%) between tf120 of treated and untreated animals [2, 9]: 35%
tf1-120 (%) (tf120 + animals dying of toxicity) [2, 9]: 80%
tf120 (%) (animals surviving day 120 without tumor) [2, 9]: 57%
tf1-120, No. (tf120 + animals dying of toxicity) [2, 10]: 24
tf120, No. (animals surviving day 120 without tumor) [2, 10]: 17
M = median survival time [2, 11]: > 120 days
% M (median survival time, untreated control = 100) [2, 12]: > 686%
D1-120 = difference (%) between tf1-120 of treated and untreated animals [2, 12]: 48%
D120 = difference (%) between tf120 of treated and untreated animals [2, 12]: 38%
tf1-120 (%) (tf120 + animals dying of toxicity) [2, 12]: 77%
tf120 (%) (animals surviving day 120 without tumor) [2, 12]: 67%
tf1-120, No. (tf120 + animals dying of toxicity) [2, 13]: 23
tf120, No. (animals surviving day 120 without tumor) [2, 13]: 20
M = median survival time ([2]; Experiment 3, i.p. day 8, CP 70, morpholino-CNU 28, piperidino-CNU 15 mg/kg): > 120 days
% M (median survival time, untreated control = 100) [2, 14]: 400%
D1-120 = difference (%) between tf1-120 of treated and untreated animals [2, 14]: 7%
D120 = difference (%) between tf120 of treated and untreated animals [2, 14]: 7%
tf1-120, No. (tf120 + animals dying of toxicity) [2, 15]: 1
tf120, No. (animals surviving day 120 without tumor) [2, 15]: 1
tf120, No. (animals surviving day 120 without tumor) ([2]; Experiment 5, CP 70, picolyl-3-CNU.HCl 25, morpholino-CNU 28, piperidino-CNU 15 mg/kg, 15 initial animals (picolyl-3-CNU.HCl 14), listed as cyclophosphamide): 1/15
tf1-120 (%) (tf120 + animals dying of toxicity) [2, 16]: 7%
tf120 (%) (animals surviving day 120 without tumor) [2, 16]: 7%
M = median survival time [2, 17]: 40 days
rate of tumor-free animals treated with cyclophosphamide in the other experiments ([2]; after 120 days, experiments other than experiment 5, listed as cyclophosphamide): 50% and 57% and 67%
p for improvement of survival time / life expectancy ([2]; compared with controls, CP (exp. 1-3), dimethylmorpholine-CNU 45 mg/kg): < 0,05
effect on survival time / life expectancy (in words) [2]: improved significantly
chemotherapeutic activity against Yoshida sarcoma in the colon wall (in words) ([2]; i.p.): most active compound
activity against Yoshida sarcoma, shown previously (in words) [3]: responds favorably

CC1CCC(NC(=O)N(CCCl)N=O)CC1 (stereo not shown) [MeCCNU, 1-(2-chloroethyl)-3-(4-methylcyclohexyl)-1-nitrosourea]
Mean animal weight on day 50 [1]: 280 g
Mean animal weight on day 100 [1]: 300 g
tumor-free animals at the end of the experiment (in words) [2]: increased the rate of tumor-free animals alive at the end of the experiment
increase in tumor-free animals (cures) above controls ([2]; CP (exp. 1-3)): 8%
D1-120 = difference (%) between tf1-120 of treated and untreated animals [2, 6]: 27%
D120 = difference (%) between tf120 of treated and untreated animals [2, 6]: 8%
tf1-120 (%) (tf120 + animals dying of toxicity) [2, 6]: 52%
tf120 (%) (animals surviving day 120 without tumor) [2, 6]: 33%
tf1-120, No. (tf120 + animals dying of toxicity) [2, 7]: 15
tf120, No. (animals surviving day 120 without tumor) [2, 7]: 10
% M (median survival time, untreated control = 100) [2, 8]: 130%
M = median survival time [2, 8]: 60 days
activity against Yoshida sarcoma, shown previously (in words) [3]: active
toxicity (in words) ([4]; at the doses tested): obviously toxic
mortality at 2880 h ([4]; rat, in vivo, ip, 45 mg/kg, read-out: animals died without a tumor before day 120): 19%

O=NN(CCCl)C(=O)NCc1cccnc1 [Picolyl-3-CNU, 1-(2-chloroethyl)-1-nitroso-3-(methylene-3-pyridyl)-urea]
water solubility (in words) [5]: water-insoluble
Mean animal weight on day 50 [1]: 250 g
Mean animal weight on day 100 [1]: 250 g
% M (median survival time, untreated control = 100) [2, 9]: 130%
D1-120 = difference (%) between tf1-120 of treated and untreated animals [2, 9]: 1%
D120 = difference (%) between tf120 of treated and untreated animals [2, 9]: -2%
tf1-120 (%) (tf120 + animals dying of toxicity) [2, 9]: 23%
tf120 (%) (animals surviving day 120 without tumor) [2, 9]: 20%
tf1-120, No. (tf120 + animals dying of toxicity) [2, 10]: 7
tf120, No. (animals surviving day 120 without tumor) [2, 10]: 6
M = median survival time [2, 11]: 28 days

O=NN(CCCl)C(=O)NCc1cccnc1 [Picolyl-3-CNU.HCl, [1-(2-chloroethyl)-1-nitroso-3-(methylene-3-pyridilium)-ureido]-chloride]
Mean animal weight on day 50 [1]: 250 g
Mean animal weight on day 100 [1]: 260 g
increase in tumor-free animals (cures) above controls ([2]; CP (exp. 1-3)): 15%
% M (median survival time, untreated control = 100) [2, 9]: 125%
D1-120 = difference (%) between tf1-120 of treated and untreated animals [2, 9]: 18%
D120 = difference (%) between tf120 of treated and untreated animals [2, 9]: 15%
tf1-120 (%) (tf120 + animals dying of toxicity) [2, 9]: 40%
tf120 (%) (animals surviving day 120 without tumor) [2, 9]: 37%
tf1-120, No. (tf120 + animals dying of toxicity) [2, 10]: 12
tf120, No. (animals surviving day 120 without tumor) [2, 10]: 11
M = median survival time [2, 11]: 27 days
% M (median survival time, untreated control = 100) [2, 14]: 150%
D1-120 = difference (%) between tf1-120 of treated and untreated animals [2, 14]: 0%
D120 = difference (%) between tf120 of treated and untreated animals [2, 14]: 0%
tf1-120, No. (tf120 + animals dying of toxicity) [2, 15]: 0
tf120, No. (animals surviving day 120 without tumor) [2, 15]: 0
M = median survival time [2, 17]: 15 days
effect on survival time / life expectancy (in words) [2]: without resulting in a significant increase in survival

From patent US4377687A, “Analogs of 1-(2-chloroethyl)-1-nitroso-3-(cycloheyl)-urea substituted by heterocyclic rings or alkyl radicals” (Stiftung Deutsches Krebsforschungszentrum, priority 1978, dated 1983)
